Measurements as given in the supplement of paper PMC10307832.

Compound: Cc1cnc(CNC(=O)c2c(=O)c3ccc(N4CCCN(C)CC4)nc3n3c2sc2ccccc23)cn1 [CX-5461] + COc1cccc2cc(-c3nc([C@H]4CC[C@H](C(=O)O)CC4)n4ncnc(N)c34)[nH]c12 [OSI-027] (partner 0.5 µM)
Assay: relative viability (nuclei count vs DMSO), 5 days (fraction); higher = more cells survive
Conditions: first compound 0.01 µM
In short: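 A single step with final 0.05% Triton X-100, 1% formaldehyde and 1 ug/ml Hoechst fixed the cells and stained nuclei 5 days after treatment. Lung cancer cell lines in 1536-well plates had been treated by pin tool the day after seeding with one drug alone or a fixed anchor-drug dose plus five library-drug doses (not always all listed) in √10 steps, and nuclei were counted on 4× images. Relative viability is the ratio of nuclei in treated wells to nuclei in vehicle wells, taken as the median of duplicate plates.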

| Cell Line | relative viability |
| --- | --- |
| NCI-H522 | 0.739 |
| NCI-H1623 | 0.394 |
| NCI-H727 | 0.59 |
| NCI-H1650 | 0.678 |
| NCI-H1993 | 0.562 |
| SK-LU-1 | 0.347 |
| NCI-H838 | 0.413 |
| LCLC-103H | 0.458 |
| NCI-H520 | 0.193 |
| NCI-H2126 | 0.75 |
| EMC-BAC-2 | 0.334 |
| NCI-H2085 | 0.845 |
| HCC-366 | 0.987 |
| NCI-H1666 | 0.894 |
| NCI-H596 | 0.711 |
| NCI-H1395 | 0.639 |
| NCI-H2087 | 0.61 |
| NCI-H2342 | 0.633 |
| LK-2 | 0.268 |
| H3255 | 0.568 |
| COR-L23 | 0.802 |
| COR-L 105 | 0.767 |
| LOU-NH91 | 0.756 |
| ChaGo-K-1 | 0.578 |
| NCI-H358 | 0.621 |
| NCI-H2405 | 0.607 |
| NCI-H1563 | 0.715 |

Same assay, conditions: first compound 0.03162 µM

| Cell Line | relative viability |
| --- | --- |
| NCI-H522 | 0.771 |
| NCI-H1623 | 0.434 |
| NCI-H727 | 0.866 |
| NCI-H1650 | 0.643 |
| NCI-H1993 | 0.591 |
| SK-LU-1 | 0.321 |
| NCI-H838 | 0.384 |
| LCLC-103H | 0.433 |
| NCI-H520 | 0.247 |
| NCI-H2126 | 0.684 |
| EMC-BAC-2 | 0.376 |
| NCI-H2085 | 0.75 |
| HCC-366 | 1 |
| NCI-H1666 | 0.875 |
| NCI-H596 | 0.737 |
| NCI-H1395 | 0.625 |
| NCI-H2087 | 0.499 |
| NCI-H2342 | 0.599 |
| LK-2 | 0.173 |
| H3255 | 0.542 |
| COR-L23 | 0.808 |
| COR-L 105 | 0.665 |
| LOU-NH91 | 0.728 |
| ChaGo-K-1 | 0.636 |
| NCI-H358 | 0.939 |
| NCI-H2405 | 0.639 |
| NCI-H1648 | 0.256 |
| NCI-H1563 | 0.745 |

Same assay, conditions: first compound 0.1 µM

| Cell Line | relative viability |
| --- | --- |
| NCI-H522 | 0.77 |
| NCI-H1623 | 0.481 |
| NCI-H727 | 0.622 |
| NCI-H1650 | 0.283 |
| NCI-H1993 | 0.625 |
| SK-LU-1 | 0.386 |
| NCI-H838 | 0.404 |
| LCLC-103H | 0.434 |
| NCI-H520 | 0.24 |
| NCI-H2126 | 0.717 |
| EMC-BAC-2 | 0.338 |
| NCI-H2085 | 0.625 |
| HCC-366 | 0.89 |
| NCI-H1666 | 0.664 |
| NCI-H596 | 0.775 |
| NCI-H1395 | 0.63 |
| NCI-H2087 | 0.474 |
| NCI-H2342 | 0.584 |
| LK-2 | 0.185 |
| H3255 | 0.559 |
| COR-L23 | 0.7 |
| COR-L 105 | 0.532 |
| LOU-NH91 | 0.714 |
| ChaGo-K-1 | 0.537 |
| NCI-H358 | 0.69 |
| NCI-H2405 | 0.717 |
| NCI-H1648 | 0.277 |
| NCI-H1563 | 0.691 |

Same assay, conditions: first compound 0.3162 µM

| Cell Line | relative viability |
| --- | --- |
| NCI-H1623 | 0.41 |
| NCI-H727 | 0.58 |
| NCI-H1650 | 0.497 |
| NCI-H1993 | 0.511 |
| LCLC-103H | 0.446 |
| NCI-H520 | 0.197 |
| NCI-H2126 | 0.783 |
| EMC-BAC-2 | 0.322 |
| NCI-H2085 | 0.557 |
| HCC-366 | 0.764 |
| NCI-H1666 | 0.756 |
| NCI-H596 | 0.715 |
| NCI-H1395 | 0.475 |
| NCI-H2087 | 0.369 |
| NCI-H2342 | 0.642 |
| LK-2 | 0.162 |
| H3255 | 0.543 |
| COR-L23 | 0.835 |
| COR-L 105 | 0.391 |
| ChaGo-K-1 | 0.331 |
| NCI-H358 | 0.592 |
| NCI-H2405 | 0.632 |
| NCI-H1648 | 0.27 |
| NCI-H1563 | 0.771 |

Same assay, conditions: first compound 1 µM

| Cell Line | relative viability |
| --- | --- |
| NCI-H522 | 0.669 |
| NCI-H1623 | 0.417 |
| NCI-H727 | 0.584 |
| NCI-H1650 | 0.182 |
| NCI-H1993 | 0.448 |
| SK-LU-1 | 0.203 |
| NCI-H838 | 0.272 |
| LCLC-103H | 0.384 |
| NCI-H520 | 0.266 |
| NCI-H2126 | 0.63 |
| EMC-BAC-2 | 0.242 |
| NCI-H2085 | 0.557 |
| HCC-366 | 0.175 |
| NCI-H1666 | 0.636 |
| NCI-H596 | 0.591 |
| NCI-H1395 | 0.515 |
| NCI-H2087 | 0.407 |
| NCI-H2342 | 0.598 |
| LK-2 | 0.179 |
| H3255 | 0.568 |
| COR-L23 | 0.472 |
| COR-L 105 | 0.445 |
| LOU-NH91 | 0.727 |
| ChaGo-K-1 | 0.315 |
| NCI-H358 | 0.194 |
| NCI-H2405 | 0.616 |
